Assay results as given in patent US20210045387A1, “COMPOSITIONS AND METHODS TO INHIBIT ARTHROPOD HOST-SEEKING BEHAVIOR” (The Rockefeller University, priority 2019, published 2021).

Key:
[1] = test system: NPY-like receptors in non-human organisms; assay: Cell-based GCaMP6s assay of related NPY-like receptors from a variety of organisms; settings: HEK cells, GCaMP6s readout, FIG. 2
Excerpt: (§1) The six compounds were screened in vitro against the panel of all 49 known Ae. aegypti peptide receptors from both L3 and L5 genome annotations, as well as human NPY receptors. FIG. 2 illustrates the level of activation of related NPY-like receptors by Ae. aegypti NPYLR7 agonists in a variety of organisms in a cell-based assay. HEK cells were transfected with receptor cDNA, promiscuous Gα subunit, and GCaMP6s. Activation was read out as increase in GFP fluorescence and EC50 values were calculated on a 6 point dose-response curve (FIG. 2). The vertical axis of each box represents NPY-related receptors for each organism: for instance, Ae. aegypti has three receptors that were tested in this assay, while Ae. Albopictus has four. […] Albopictus. The horizontal axis indicates the compound tested. […] Compounds 6, 7, 2, 5, 1, and 9 were also tested.

Female mosquitoes = assay: Live host assay: blood-feeding on an anesthetized mouse (mark-release-recapture); type: in vivo, Ae. aegypti; settings: 100 μM in saline fed two days prior
Excerpt: Females from each feeding group were separately marked with one of three different paint powders using the “shake in a bag” technique (Verhulst et al., 2013), and all three of these groups were pooled and allowed to recover together in a cage. […] Females were scored for powder color to indicate treatment condition and for the presence of fresh blood in the midgut. Similar to the results in host-seeking assays, non-blood-fed and saline-fed females consumed fresh blood at high levels. In contrast, females that had fed on sheep blood two days prior rarely consumed fresh blood. […] (Compound designations shown as circled numbers.)

human NPY receptors = assay: Cell-based GCaMP6s assay of human NPY receptor activation; settings: HEK cells, GCaMP6s readout, FIG. 2
Excerpt: as §1

[2] = test system: Aedes albopictus NPY-like receptors; assay: Cell-based GCaMP6s assay of Aedes albopictus NPY-like receptors; settings: FIG. 2
Excerpt: as §1
(§2) Aedes albopictus host-seeking in a miniport olfactometer two days after feeding the indicated meals (n=6-34, 15-25 females/trial) is shown in FIG. 5. Data are plotted as median with range.

[3] = test system: Aedes albopictus mosquitoes; assay: Miniport olfactometer host-seeking assay in Aedes albopictus; type: in vivo; settings: two days after feeding, FIG. 5
Excerpt: as §2

Row | SMILES | Activation of NPY-like receptors in non-human organisms [1] | Blood-feeding on a live host (anesthetized mouse) (Female mosquitoes; 15 minutes access to mouse) | Blood-feeding on a live host, NPYLR7 mutants (Female mosquitoes; NPYLR7 mutant females) | Activation of human NPY receptors (human NPY receptors) | Activation of Aedes albopictus NPY-like receptors in vitro [2] | Suppression of host-seeking in Aedes albopictus, miniport olfactometer [3]
1 | COc1ccc2c(C)nc(NC(=N)N)nc2c1 [Compound 1] | activate many of the receptors in non-human organisms | very low levels of blood-feeding on a live host | resistant to this effect | none of these compounds activates any of the human receptors |  | 
2 | COc1ccc2nc(N)nc(C)c2c1 [Compound 2] | activate many of the receptors in non-human organisms |  |  | none of these compounds activates any of the human receptors |  | 
3 | CCc1nc(NC(=N)N)nc2cc(C)ccc12 [Compound 5] | activate many of the receptors in non-human organisms |  |  | none of these compounds activates any of the human receptors |  | 
4 | CC(C)(C)c1cnc(CSc2cnc(NC(=O)C3CCNCC3)s2)o1 [Compound 6] | activate many of the receptors in non-human organisms |  |  | none of these compounds activates any of the human receptors | activates Aedes albopictus NPY-like receptors in vitro | suppresses host-seeking in Aedes albopictus mosquitoes
5 | COc1ccc(CC2c3cc(OC)c(OC)cc3CC[N+]2(C)CCC(=O)OCCCCCOC(=O)CC[N+]2(C)CCc3cc(OC)c(OC)cc3C2Cc2ccc(OC)c(OC)c2)cc1OC (centres unmarked) [Compound 9] | activate many of the receptors in non-human organisms |  |  | none of these compounds activates any of the human receptors |  | 
